Test results taken from BigSolDB 2.1.

OCC1(O)OC[C@@H](O)[C@H](O)[C@@H]1O (stereo not given in full)
solubility (mole fraction) (in ethanol, 283.15 K): 0.00138 | solubility (mole fraction) (in ethanol, 288.15 K): 0.00168 | solubility (mole fraction) (in ethanol, 293.15 K): 0.00193 | solubility (mole fraction) (in ethanol, 298.15 K): 0.00219 | solubility (mole fraction) (in ethanol, 303.15 K): 0.00245 | solubility (mole fraction) (in ethanol, 308.15 K): 0.00288 | solubility (mole fraction) (in ethanol, 313.15 K): 0.00328 | solubility (mole fraction) (in ethanol, 318.15 K): 0.00395 | solubility (mole fraction) (in ethanol, 323.15 K): 0.00468 | solubility (mole fraction) (in isopropanol, 283.15 K): 0.00038 | solubility (mole fraction) (in isopropanol, 288.15 K): 0.00041 | solubility (mole fraction) (in isopropanol, 293.15 K): 0.0006 | solubility (mole fraction) (in isopropanol, 298.15 K): 0.00088 | solubility (mole fraction) (in isopropanol, 303.15 K): 0.00121 | solubility (mole fraction) (in isopropanol, 308.15 K): 0.0015 | solubility (mole fraction) (in isopropanol, 313.15 K): 0.00171 | solubility (mole fraction) (in isopropanol, 318.15 K): 0.00211 | solubility (mole fraction) (in isopropanol, 323.15 K): 0.00261 | solubility (mole fraction) (in methanol, 283.15 K): 0.00414 | solubility (mole fraction) (in methanol, 288.15 K): 0.00553 | solubility (mole fraction) (in methanol, 293.15 K): 0.00609 | solubility (mole fraction) (in methanol, 298.15 K): 0.00758 | solubility (mole fraction) (in methanol, 303.15 K): 0.00892 | solubility (mole fraction) (in methanol, 308.15 K): 0.0101 | solubility (mole fraction) (in methanol, 313.15 K): 0.0121 | solubility (mole fraction) (in methanol, 318.15 K): 0.0155 | solubility (mole fraction) (in methanol, 323.15 K): 0.0166 | solubility (mole fraction) (in n-propanol, 283.15 K): 0.00038 | solubility (mole fraction) (in n-propanol, 288.15 K): 0.00043 | solubility (mole fraction) (in n-propanol, 293.15 K): 0.00062 | solubility (mole fraction) (in n-propanol, 298.15 K): 0.00088 | solubility (mole fraction) (in n-propanol, 303.15 K): 0.00127 | solubility (mole fraction) (in n-propanol, 308.15 K): 0.00164 | solubility (mole fraction) (in n-propanol, 313.15 K): 0.002 | solubility (mole fraction) (in n-propanol, 318.15 K): 0.00238 | solubility (mole fraction) (in n-propanol, 323.15 K): 0.00272 | solubility (mole fraction) (in water, 283.15 K): 0.0976 | solubility (mole fraction) (in water, 288.15 K): 0.106 | solubility (mole fraction) (in water, 293.15 K): 0.116 | solubility (mole fraction) (in water, 298.15 K): 0.124 | solubility (mole fraction) (in water, 303.15 K): 0.135 | solubility (mole fraction) (in water, 308.15 K): 0.146 | solubility (mole fraction) (in water, 313.15 K): 0.155 | solubility (mole fraction) (in water, 318.15 K): 0.166 | solubility (mole fraction) (in water, 323.15 K): 0.175
